For 19 compounds, IC50 and AUC results are on record in patent US11498921B1, “Pyrimidine or pyridine compounds, preparation method therefor and pharmaceutical uses thereof” (INVENTISBIO CO., LTD., priority 2014, dated 2022).

A word on the IC50: it is the concentration that inhibits the measured activity by half. Lower therefore signals higher potency. By AUC is commonly meant the area under the concentration-time curve, a measure of exposure.

Data set [1] concerns LoVo cells (wild-type EGFR human colon adenocarcinoma). In words: Cell growth inhibition (Cell Titer-Glo), LoVo. Type of data set: cell-based. The following applies: 72 hours drug treatment, 3 nM to 10 μM. How it is done:
(§1) Experiment of Cell Growth Inhibition
(§2) The LoVo cell line is a wild-type EGFR human colon adenocarcinoma cell, and is grown in F-12K medium (GIBCO) containing 10% FBS. NCI-H2073 cell line is a wild-type EGFR human non-small cell lung cancer cell and grown in ACL-4 medium containing 10% FBS. The growth rate of NCI-H1975, LoVo and NCI-H2073 cells was detected by Cell Titer-Glo luminescence activity assay (Promega #G7572).
(§3) Briefly, trypsin was used for digesting cells in the logarithmic growth phase. 96-well plates were seeded with 50,000 Lovo or NCI-H2073 cells, 2500-3000 NCI-H1975 cells per well and provided with blank control wells containing only nutrient solution without inoculated cell, and the plates were incubated in a humidified incubator with 5% CO2 at 37° C. […] The concentration of test drug in NCI-H1975 cells was from 0.03 nM to 100 nM, and that in LoVo and NCI-H2073 cells was from 3 nM to 10 μM. The cell culture medium containing the different compounds was then added to a 96-well cell plate in which one cell control well comprising cell culture medium only containing DMSO was provided. After a drug treatment for 72 hours, the cell plates were removed from the incubator and allowed to stand at room temperature for 30 minutes. Next, Cell Titer-Glo reagent was added to the wells and the 96-well cell plate was shaken at room temperature for 10 minutes to induce cell lysis. The 96-well cell plate was placed on the bench for 2 minutes to stabilize the luminescence signal. Finally, the 96-well cell plate was placed in an EnVision Multi-labeled Microplate Reader (PerkinElmer), and the signal was read with an integral time of 0.5 seconds.
(§4) Formula: Percentage of cell growth inhibition %=(maximum signal−compound signal)/(maximum signal−minimum signal)*100%
(§5) The maximal signal was obtained from the cell control well which were treated with the DMSO solution having no any compound;
(§6) The compound signal was obtained from the drug-treated cell wells to which the compound was added;
(§7) The minimum signal was obtained from a blank control well to which no cells and only nutrient solution was added.

Data set [2] has as its system NCI-H1975 cells (T790M and L858R EGFR mutations). The experiment in a line: Cell growth inhibition (Cell Titer-Glo), NCI-H1975. The data set is classed as cell-based. Conditions: Homo sapiens, 72 hours drug treatment, 0.03 nM to 100 nM. How it is done: as §1, §2, §3, §4, §5, §6, §7
Data set [3] concerns NCI-H2073 cells (wild-type EGFR human non-small cell lung cancer). In words: Cell growth inhibition (Cell Titer-Glo), NCI-H2073. Type of data set: cell-based. Conditions: 72 hours drug treatment, 3 nM to 10 μM. How it is done: as §1
as §2, with “The compounds that were preferentially targeted for EGFR targeting certain mutations and relatively weak in wild-type EGFR were identified by determining the growth of cells. The NCI-H1975 cell line is a human non-small cell lung cancer cell containing T790M and L858R EGFR mutations, and the cell is grown in RPMI-1640 medium (GIBCO) containing 10% fetal bovine serum (FBS). The LoVo” for “The LoVo”
Briefly, trypsin was used for digesting cells in the logarithmic growth phase. 96-well plates were seeded with 50,000 Lovo or NCI-H2073 cells, 2500-3000 NCI-H1975 cells per well and provided with blank control wells containing only nutrient solution without inoculated cell, and the plates were incubated in a humidified incubator with 5% CO2 at 37° C. After 24 hours, the DMSO solution of the different compounds was diluted with a cell culture medium at 3.16 times per time to eight different concentrations from high to low levels. The concentration of test drug in NCI-H1975 cells was from 0.03 nM to 100 nM, and that in LoVo and NCI-H2073 cells was from 3 nM to 10 μM. The cell culture medium containing the different compounds was then added to a 96-well cell plate in which one cell control well comprising cell culture medium only containing DMSO was provided. After a drug treatment for 72 hours, the cell plates were removed from the incubator and allowed to stand at room temperature for 30 minutes. Next, Cell Titer-Glo reagent was added to the wells and the 96-well cell plate was shaken at room temperature for 10 minutes to induce cell lysis. The 96-well cell plate was placed on the bench for 2 minutes to stabilize the luminescence signal. Finally, the 96-well cell plate was placed in an EnVision Multi-labeled Microplate Reader (PerkinElmer), and the signal was read with an integral time of 0.5 seconds.
as §4, §5, §6, §7
A general note: In ATP-based viability assays light output follows the ATP content of the culture.

Data set [4] is described as follows: Concentration of parent drug and metabolite AZ5104 in rat plasma. Type of data set: in vivo. Conditions: po, adult male rats, intragastrically, 10 mg/kg, 0.25-24 hours. How it is done: Comparison of the concentration of the metabolite AZ5104 in rats' body plasma of the pyrimidine compounds according to the present invention and AZD9291
Briefly, AZD9291 or the compound 49.(HCl)n of Example 49 or the compound 104.(MsOH) of Example 104 were administered intragastrically to 200-220 g of adult male rats at amount of 10 mg/kg. Each administration group had two to three rats. After administration, 150 μl of blood was extracted from the vein on the rat tail at different times (0.25, 0.5, 1, 2, 4, 6, 8, 12 and 24 hours), put in a tube with K2EDTA and placed immediately on ice. Then, the blood sample was centrifuged in centrifuge with a 4-degree at a speed of 2000 g for 15 minutes. The plasma was separated and placed in a small tube and stored in a refrigerator at −80° C. The concentration of parent drug and metabolite in plasma sample was analyzed by LC/MS.

Counter-ions that a name gives are not always drawn.

Consider `C=CC(=O)Nc1cc(Nc2nccc(N3CC(C)(C)c4ccccc43)n2)c(OC)cc1N(C)CCN(C)C` [37. (MsOH)3], for which the results for the IC50 in data set [1], in data set [2] and in data set [3] were 4660 nM, 8.1 nM and 260 nM, respectively.

With `C=CC(=O)Nc1cc(Nc2nccc(N3CC4(CC4)c4ccccc43)n2)c(OC)cc1N(C)CCN(C)C` [38. (HCl)n], the IC50 in data set [1] amounted to 2990 nM; in data set [2], 8.2 nM; in data set [3], 476 nM.

Consider `C=CC(=O)Nc1cc(Nc2nccc(-n3c(=O)[nH]c4ccccc43)n2)c(OC)cc1N(C)CCN(C)C` [39. (MsOH)3], for which the IC50 in data set [1] came out at 3390 nM; in data set [2], 0.8 nM; in data set [3], 18 nM.

With `C=CC(=O)Nc1cc(Nc2nccc(-n3c(=O)n(C)c4ccccc43)n2)c(OC)cc1N(C)CCN(C)C` [40. (MsOH)3], the results for the IC50 in data set [1], in data set [2] and in data set [3] were 6090 nM, 1.3 nM and 183 nM, respectively.

As to `C=CC(=O)Nc1cc(Nc2nccc(-c3cccc4c3ccn4C)n2)c(OC)cc1N(C)CCN(C)C` [41. (HCl)n], the IC50 in data set [1] is more than 10000 nM; in data set [2], 7.4 nM; in data set [3] it was 340 nM.

For `C=CC(=O)Nc1cc(Nc2nccc(-c3cccc4c3cnn4C)n2)c(OC)cc1N(C)CCN(C)C` [42. (HCl)n], the IC50 is 7100 nM in data set [1], 7.1 nM in data set [2] and 490 nM in data set [3].

Take `C=CC(=O)Nc1cc(Nc2cc(-c3cn(C)c4ccccc34)ncn2)c(OC)cc1N(C)CCN(C)C` [44. (HCl)n]: the IC50 in data set [1] stood at 870 nM; in data set [2], 14 nM; in data set [3], 280 nM.

In the case of `C=CC(=O)Nc1cc(Nc2nccc(-c3cn(CC)c4ccccc34)n2)c(OC)cc1N(C)CCN(C)C` [48. (HCl)n], the values for the IC50 in data set [1], in data set [2] and in data set [3] were 2340 nM, 5.5 nM and 435 nM, respectively.

Take `C=CC(=O)Nc1cc(Nc2nccc(-c3cn(S(C)(=O)=O)c4ccccc34)n2)c(OC)cc1N(C)CCN(C)C` [49. (HCl)n]: the results for the IC50 in data set [1], in data set [2] and in data set [3] were 2260 nM, 0.7 nM and 135 nM, respectively. Besides, the AUC in data set [4] was 0.91 µM·h.

With `C=CC(=O)Nc1cc(Nc2nccc(-n3[nH]c(=O)c4ccccc43)n2)c(OC)cc1N(C)CCN(C)C` [50. (HCl)n], the IC50 in data set [1] was more than 10000 nM; in data set [2] it was 9.2 nM; in data set [3] it was 290 nM.

As to `C=CC(=O)Nc1cc(Nc2nccc(-c3nn(CC)c4ccccc34)n2)c(OC)cc1N(C)CCN(C)C` [51. (HCl)n], the IC50 in data set [1] is 1280 nM; in data set [2] it was 2.6 nM; in data set [3], 325 nM.

Regarding `C=CC(=O)Nc1cc(Nc2nccc(-c3nc(C)c4ccccn34)n2)c(OC)cc1N(C)CCN(C)C` [52. (HCl)n], the IC50 in data set [1] came out at 6100 nM; in data set [2], 5.2 nM; in data set [3] it was 220 nM.

Consider `C=CC(=O)Nc1cc(Nc2nccc(-c3cn(C)c4ccccc34)n2)c(OC)cc1N(C)CCN1CCC(O)C1` (centres unmarked) [53. (HCl)n], for which the IC50 in data set [1] worked out at 2860 nM; in data set [2] it was 14 nM; in data set [3], 690 nM.

`C=CC(=O)Nc1cc(Nc2nccc(-n3ccc(=O)c4ccccc43)n2)c(OC)cc1N(C)CCN(C)C` [56. (HCl)n]: the IC50 in data set [1] was 4180 nM; in data set [2], 36 nM; in data set [3], more than 10000 nM.

For `[2H]C([2H])([2H])N(CCN(C)C)c1cc(OC)c(Nc2nccc(-n3c(=O)n(C)c4ccccc43)n2)cc1NC(=O)C=C` [59. (HCl)n], the results for the half-inhibitory concentration (IC50) in data set [1], in data set [2] and in data set [3] were 4180 nM, 1.3 nM and 120 nM, respectively.

As to `[2H]C([2H])([2H])Oc1cc(N(C)CCN(C)C)c(NC(=O)C=C)cc1Nc1nccc(-n2c(=O)n(C)c3ccccc32)n1` [60. (HCl)n], the half-inhibitory concentration (IC50) in data set [1] came to 4070 nM; in data set [2], 1.4 nM; in data set [3], 110 nM.

For the compound `C=CC(=O)Nc1cc(Nc2nccc(-c3cn(CC(F)(F)F)c4ccccc34)n2)c(OC)cc1N(C)CCN(C)C` [104. (MsOH)2], the AUC in data set [4] came out at 1.49 µM·h. The IC50 was 16.5 nM in data set [2] and 977 nM in data set [3].

Take `C=CC(=O)Nc1cc(Nc2nccc(-c3cn(C)c4ccccc34)n2)c(OC)cc1N(C)CCN(C)C` [AZD9291, reference compound]: the AUC in data set [4] was 0.64 µM·h.

Turning to `C=CC(=O)Nc1cc(Nc2nccc(-c3cn(C)c4ccccc34)n2)c(OC)cc1N1CC(N2CCC2)C1` [Example 22], the figures for the IC50 in data set [1], in data set [2] and in data set [3] were more than 10000 nM, 20.5 nM and more than 10000 nM, respectively.
